Consider three compounds from US20230295234A1, “ANTIMICROBIAL PEPTIDOMIMETICS” (SPEXIS AG, priority 2020, published 2023).

The test system of data set [1] is Escherichia coli ATCC 25922. The conditions noted are these: ATCC 25922. How it is done: (§1) Lyophilized peptides were weighed on a Microbalance (Mettler MT5) and dissolved in sterile water to a final concentration of 1 mg/mL. Stock solutions were kept at +4° C., light protected.
(§2) Colonies of the microorganisms were diluted in saline (0.85%, NaCl) and adjusted using a McFarland reader (bioMérieux SA, Marcy-l'Etoile, France) to 0.5 McFarland standard. Subsequently, the bacterial suspension was diluted in Mueller-Hinton II (MHII, cation adjusted) broth to give approximately 5×10^5 colony forming units (CFU/mL).
(§3) 10^6 colony forming units (CFU)/mL. Aliquots (90 μl) of inoculate were added to 10 μl of water+P-80 (Polysorbate 80, 0.002% final concentration) containing the peptide in serial two-fold dilutions at 10 fold final concentration. The following microorganisms were used to determine antibiotic selectivity of the peptides: Escherichia coli ATCC 25922, Escherichia coli MCR-1 Af 45 and Klebsiella pneumoniae SSI3010.

Data set [2] relates to Klebsiella pneumoniae SSI3010. The conditions noted are these: SSI3010. As to the method:
as §1, §2, §3

The subject of data set [3] is human red blood cells (hRBC). Description: Hemolysis of human red blood cells. Format: cell-based. The settings on record: red cells of human, 1 h. How it is done: Lyophilized peptides were weighed on a Microbalance (Mettler MT5) and dissolved in sterile water to a final concentration of 1 mg/mL. Stock solutions were kept at +4° C., light protected. The peptides were tested for their hemolytic activity against human red blood cells (hRBC). Fresh hRBC were washed three times with phosphate buffered saline (PBS) and centrifuged for 5 min at 3000×g. Compounds (200 μg/mL) were incubated with 20% hRBC (v/v) for 1 h at 37° C. and shaking at 300 rpm. […] The samples were centrifuged, the supernatants were 8-fold diluted in PBS buffer and the optical densities (OD) were measured at 540 nm. […] Percent hemolysis was calculated as follows: (OD540peptide/OD540H2O)×100%.

Bridge positions count the residues as written; N and C are the ends. Square brackets hold non-standard residues; d marks the D form. Peptide text beside a SMILES is read from it. Pro(4R-NH2) = N[C@H]1CN[C@H](C(=O)O)C1; Hyp = O=C(O)[C@@H]1C[C@@H](O)CN1; Gly(N(CH2)3NH2) = NCCCNCC(=O)O; Pen = CC(C)(S)[C@H](N)C(=O)O; dDab = NCC[C@@H](N)C(=O)O; Dab = NCC[C@H](N)C(=O)O; Nlys = NCCCCNCC(=O)O

Consider `CC[C@H](C)[C@H](NC(=O)[C@@H]1C[C@@H](O)CN1C(=O)[C@@H](NC(=O)[C@@H]1C[C@@H](N)CN1C(=O)CNCCCN)C(C)C)C(=O)N[C@H](C(=O)N[C@@H](Cc1ccc(O)cc1)C(=O)N[C@@H]1C(=O)N[C@@H](CC(N)=O)C(=O)N[C@@H](CCCNC(=N)N)C(=O)N[C@@H](CCN)C(=O)N[C@@H]([C@@H](C)O)C(=O)N[C@H](CCN)C(=O)N[C@@H](CCCCN)C(=O)N[C@H](C(=O)N[C@@H](CCN)C(=O)N[C@@H](CCCNC(=N)N)C(=O)N[C@@H](Cc2ccc(O)cc2)C(=O)O)CSSC1(C)C)[C@@H](C)O` [Example 51, Norn-Pro((4R)NH2)-Val-Hyp-Ile-Thr-Tyr-Pen-Asn-Arg-Dab-Thr-^DDab-Lys-Cys-Dab-Arg-Tyr] (H-[Gly(N(CH2)3NH2)][Pro(4R-NH2)]V[Hyp]ITY[Pen]NR[Dab]T[dDab]KC[Dab]RY-OH; disulfide 8-15), for which the “Escherichia coli ATCC 25922 MIC” value in data set [1] worked out at 0.0625 µg/mL. Also, the “Klebsiella pneumoniae SSI3010 MIC” value in data set [2] came out at 0.25 µg/mL. In addition, the “Hemolysis at 0.2 g/L” value in data set [3] was 0%.

Turning to `CC[C@H](C)[C@H](NC(=O)[C@@H]1C[C@@H](O)CN1C(=O)[C@@H](NC(=O)[C@@H]1C[C@@H](N)CN1C(=O)CNCCCCN)C(C)C)C(=O)N[C@H](C(=O)N[C@@H](Cc1ccc(O)cc1)C(=O)N[C@@H]1C(=O)N[C@@H](CC(N)=O)C(=O)N[C@@H](CCCNC(=N)N)C(=O)N[C@@H](CCN)C(=O)N[C@@H]([C@@H](C)O)C(=O)N[C@H](CCN)C(=O)N[C@@H](CCCCN)C(=O)N[C@H](C(=O)N[C@@H](CCN)C(=O)N[C@@H](CCCNC(=N)N)C(=O)N[C@@H](Cc2ccc(O)cc2)C(=O)O)CSSC1(C)C)[C@@H](C)O` [Example 52, Nlys-Pro((4R)NH2)-Val-Hyp-Ile-Thr-Tyr-Pen-Asn-Arg-Dab-Thr-^DDab-Lys-Cys-Dab-Arg-Tyr] (H-[Nlys][Pro(4R-NH2)]V[Hyp]ITY[Pen]NR[Dab]T[dDab]KC[Dab]RY-OH; disulfide 8-15), the “Escherichia coli ATCC 25922 MIC” value in data set [1] is 0.0625 µg/mL. Also, the “Klebsiella pneumoniae SSI3010 MIC” value in data set [2] is 0.125 µg/mL. For the same compound, the “Hemolysis at 0.2 g/L” value in data set [3] is 0%.

For `CCCC[C@H](NC(=O)[C@H](CCCNC(=N)N)NC(=O)[C@H](CCN)NC(=O)[C@@H]1CSSC[C@H](NC(=O)[C@H](Cc2ccc(O)cc2)NC(=O)[C@@H](NC(=O)[C@@H](NC(=O)[C@@H]2C[C@@H](O)CN2C(=O)[C@@H](NC(=O)[C@@H]2C[C@@H](O)CN2C(=O)[C@H](CCCCN)NC(=O)[C@@H](N)CCCCN)C(C)C)[C@@H](C)CC)[C@@H](C)CC)C(=O)N[C@@H](CC(N)=O)C(=O)N[C@@H](CCCNC(=N)N)C(=O)N[C@@H](CCN)C(=O)N[C@@H]([C@@H](C)O)C(=O)N[C@H](CCN)C(=O)N[C@@H](CCCCN)C(=O)N1)C(=O)O` [Example 78, Lys-Lys-Hyp-Val-Hyp-Ile-Ile-Tyr-Cys-Asn-Arg-Dab-Thr-^DDab-Lys-Cys-Dab-Arg-Nle] (HELM PEPTIDE1{K.K.[Hyp].V.[Hyp].I.I.Y.C.N.R.[Dab].T.[NCC[C@@H](N[*:1])C(=O)[*:2]].K.C.[Dab].R.[Nle]}$PEPTIDE1,PEPTIDE1,9:R3-16:R3$$$V2.0), the “Escherichia coli ATCC 25922 MIC” value in data set [1] worked out at 0.125 µg/mL. The “Klebsiella pneumoniae SSI3010 MIC” value in data set [2] worked out at 0.125 µg/mL. In addition, the “Hemolysis at 0.2 g/L” value in data set [3] was 0%.
